Laboratory results taken from the NIST ThermoML archive (doi:10.1021/je025639s).

Assays:
[1] = Ring tensiometer
[2] = xn = mol fraction of the nth substance listed; conditions: Ring tensiometer

CCO [ethanol]
[1]
Conditions	surface tension liquid-gas [mN/m]
293.15 K	22.3
298.15 K	21.8
303.15 K	21.4
308.15 K	21.1
313.15 K	20.8
318.15 K	20.5
323.15 K	20

OCCO [1,2-ethanediol] + CCO
surface tension liquid-gas [mN/m], [2]
Conditions	293.15 K	298.15 K	303.15 K	308.15 K	313.15 K	318.15 K	323.15 K
x2 = 0	48.9	48.6	48.1	47.5	47.1	46.4	45.9
x2 = 0.1	42	41.8	41.4	41.2	41	40.6	39.8
x2 = 0.3	32.9	32.7	32.2	31.6	31.1	30.8	30.7
x2 = 0.5	28.5	28.3	27.8	27.4	27	26.7	26.5
x2 = 0.6	26.9	26.4	26.1	25.8	25.4	25	24.8
x2 = 0.7	25	24.9	24.7	24.4	24	23.6	23.2
x2 = 0.9	23.1	22.68	22.33	22.05	21.8	21.55	21.1

OCCO [1,2-ethanediol]
[1]
Conditions	surface tension liquid-gas [mN/m]
293.15 K	48.9
298.15 K	48.6
303.15 K	48.1
308.15 K	47.5
313.15 K	47.1
318.15 K	46.4
323.15 K	45.9

CCO [ethanol] + OCCO
[2], x1 = 1
Conditions	surface tension liquid-gas [mN/m]
293.15 K	22.3
298.15 K	21.8
303.15 K	21.4
308.15 K	21.1
313.15 K	20.8
318.15 K	20.5
323.15 K	20
